This note sets out measurements from patent US10266526B2, “Substituted 1,2,3-triazoles as SMYD inhibitors for treating cancer” (EPIZYME, INC., priority 2014, dated 2019).

SMYD2, sequence (Q9NRG4 whole entry): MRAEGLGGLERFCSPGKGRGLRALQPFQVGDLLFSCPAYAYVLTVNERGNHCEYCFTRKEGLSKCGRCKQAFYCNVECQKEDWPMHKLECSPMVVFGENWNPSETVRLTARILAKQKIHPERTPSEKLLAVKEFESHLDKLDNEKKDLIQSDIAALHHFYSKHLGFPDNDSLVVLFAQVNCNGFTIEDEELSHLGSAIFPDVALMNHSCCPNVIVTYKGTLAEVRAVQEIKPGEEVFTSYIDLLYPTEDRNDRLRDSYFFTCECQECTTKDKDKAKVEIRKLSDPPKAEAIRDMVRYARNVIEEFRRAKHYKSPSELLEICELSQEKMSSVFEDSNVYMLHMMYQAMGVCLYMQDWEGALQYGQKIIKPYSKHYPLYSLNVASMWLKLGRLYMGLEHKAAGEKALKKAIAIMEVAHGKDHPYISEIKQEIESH
SMYD3, sequence (Q9H7B4 whole entry): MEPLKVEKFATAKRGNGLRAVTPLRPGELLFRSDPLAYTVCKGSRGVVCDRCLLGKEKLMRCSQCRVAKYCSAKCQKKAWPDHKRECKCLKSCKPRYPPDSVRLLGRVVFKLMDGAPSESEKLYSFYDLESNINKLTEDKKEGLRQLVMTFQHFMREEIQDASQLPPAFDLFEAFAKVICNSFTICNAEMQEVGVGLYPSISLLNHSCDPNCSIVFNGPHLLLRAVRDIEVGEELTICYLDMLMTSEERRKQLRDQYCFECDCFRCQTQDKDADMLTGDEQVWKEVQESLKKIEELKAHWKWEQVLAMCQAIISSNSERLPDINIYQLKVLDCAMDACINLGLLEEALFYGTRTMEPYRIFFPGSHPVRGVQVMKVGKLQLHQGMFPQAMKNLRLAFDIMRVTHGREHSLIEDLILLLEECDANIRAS

The first assay addresses SMYD3 (Homo sapiens (Human), UniProt Q9H7B4). Kind of assay: SMYD3 biochemical assay (SMYD3 enzyme assay on MEKK2 protein substrate, 3H-SAM scintillation proximity assay). The note with it: read-out: SMYD3 Biochem IC50. The method in brief:
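Detection used scintillation proximity beads to capture ³H-methylated GST-MEKK2 after quench with 100 uM final cold SAM. The reaction was started by SAM/MEKK2 addition after a 30 min RT compound–enzyme preincubation. Enzyme was tag-free full-length human SMYD3 from E. coli, in buffer of 25 mM Tris-Cl pH 8.0, 1 mM TCEP, 0.005% BSG, 0.005% Tween 20.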
Consider `NCCC(=O)N[C@H]1CC[C@H](NC(=O)c2ncccc2O)CC1` [compound 512, N-((1r,4r)-4-(3-aminopropanamido)cyclohexyl)-3-hydroxypicolinamide], for which the IC50 is more than 50000 nM. On the same count and under the same terms, in the case of `COc1cncc(C(=O)N[C@H]2CC[C@H](NC(=O)CCN)CC2)n1` [compound 355, N-((1r,4r)-4-(3-aminopropanamido)cyclohexyl)-6-methoxypyrazine-2-carboxamide] it was more than 100000 nM; in that of `NCCC(=O)N[C@H]1CC[C@H](NC(=O)c2cc3cc(F)ccc3[nH]2)CC1` [compound 335, N-((1r,4r)-4-(3-aminopropanamido)cyclohexyl)-5-fluoro-1H-indole-2-carboxamide], more than 100000 nM. As for `COc1cc(C(=O)N[C@H]2CC[C@H](N)CC2)c2ccccc2n1` [compound 223, N-((1r,4r)-4-aminocyclohexyl)-2-methoxyquinoline-4-carboxamide], the IC50 is more than 100000 nM. Still for that read-out and setting: in the case of `CC1Oc2ccc(C(=O)N[C@H]3CC[C@H](NC(=O)CCN)CC3)cc2NC1=O` (stereo partly drawn) [compound 451, N-((1r,4r)-4-(3-aminopropanamido)cyclohexyl)-2-methyl-3-oxo-3,4-dihydro-2H-benzo[b][1,4]oxazine-6-carboxamide] it was 9900 nM; in that of `Cc1ccncc1C(=O)N[C@H]1CC[C@H](N)CC1` [compound 339, N-((1r,4r)-4-aminocyclohexyl)-4-methylnicotinamide], more than 100000 nM.

The next assay has as its target SMYD2 (Homo sapiens (Human), UniProt Q9NRG4). In words: SMYD2 biochemical assay (SMYD2 enzyme assay on peptide substrate, 3H-SAM Flashplate). The note with it: read-out: SMYD2 Biochem IC50; IC50 values are an average of n = 1 to n = 50.
Excerpt: S-adenosylmethionine (SAM), S-adenosylhomocysteine (SAH), bicine, Tween20, dimethylsulfoxide (DMSO), bovine skin gelatin (BSG), and Tris(2-carboxyethyl)phosphine hydrochloride (TCEP) were purchased from Sigma-Aldrich at the highest level of purity possible. ^3H-SAM was purchase from American Radiolabeled Chemicals with a specific activity of 80 Ci/mmol. 384-well streptavidin Flashplates were purchased from PerkinElmer.
The sequence was [sequence](K-Biot)-amide.
Production of Recombinant SMYD2 Enzymes for Biochemical Enzyme Activity Assays
Full length SMYD2 (NP_064582.2) was cloned into a pFastbac-Htb-lic vector with an N-terminal His6 tag and FLAG tag, preceded by a TEV protease cleavage site. The protein was expressed in Sf9 insect cells. Cells were resuspended in lysis buffer (25 mM HEPES-NaOH, pH 7.5, 200 mM NaCl, 5% glycerol, and 5 mM (3-ME) and lysed by sonication. The protein was purified by Ni-NTA (Qiagen), followed by TEV cleavage to remove the His6 tag, subtractive Ni-NTA (Qiagen), and gel filtration chromatography using an S200 column (GE Healthcare). Purified protein was stored in 20 mM Tris-HCl, pH 8.0, 100 mM NaCl, and 1 mM TCEP.
General Procedure for SMYD2 Enzyme Assays on Peptide Substrates
The assays were all performed in a buffer consisting of 20 mM Bicine (pH=7.6), 1 mM TCEP, 0.005% Bovine Skin Gelatin, and 0.002% Tween20, prepared on the day of use. […] DMSO (1 ul) was added to Columns 11, 12, 23, 24, rows A-H for the maximum signal control and 1 ul of SAH, a known product and inhibitor of SMYD2, was added to columns 11, 12, 23, 24, rows I-P for the minimum signal control. A cocktail (40 ul) containing the SMYD2 enzyme was added by Multidrop Combi (Thermo-Fisher). The compounds were allowed to incubate with SMYD2 for 30 min at room temperature, then a cocktail (10 ul) containing ^3H-SAM and peptide was added to initiate the reaction (final volume=51 ul). […] The assays were stopped by the addition of non-radioactive SAM (10 ul) to a final concentration of 600 uM, which dilutes the ^3H-SAM to a level where its incorporation into the peptide substrate is no longer detectable. 50 ul of the reaction in the 384-well polypropylene plate was then transferred to a 384-well Flashplate and the biotinylated peptides were allowed to bind to the streptavidin surface for at least 1 hour before being washed three times with 0.1% Tween20 in a Biotek ELx405 plate washer. The plates were then read in a PerkinElmer TopCount plate reader to measure the quantity of ^3H-labeled peptide bound to the Flashplate surface, measured as disintegrations per minute (dpm) or alternatively, referred to as counts per minute (cpm).
Where dpm=disintegrations per minute, cmpd=signal in assay well, and min and max are the respective minimum and maximum signal controls.
Where top and bottom are the normally allowed to float, but may be fixed at 100 or 0 respectively in a 3-parameter fit. The Hill Coefficient normally allowed to float but may also be fixed at 1 in a 3-parameter fit. I is the compound concentration.
Take `O=C(NC1CN(CC2CCC2)C1)c1cn(C2CC2)nn1` [compound 669, N-[1-(cyclobutylmethyl)azetidin-3-yl]-1-cyclopropyl-1H-1,2,3-triazole-4-carboxamide]: the half-maximal inhibitory concentration (IC50) amounted to 1620 nM. The same measure, in the same setting: in the case of `CC(C)N1CC(NC(=O)c2cc(C3CC3)cnn2)C1` [compound 645, 5-cyclopropyl-N-[1-(propan-2-yl)azetidin-3-yl]pyridazine-3-carboxamide] it was 745 nM; in that of `Cc1ccc(Cn2cc(CN3CC(NC(=O)c4cn(C5CC5)nn4)C3)cn2)cc1` [compound 993, 1-cyclopropyl-N-(1-((1-(4-methylbenzyl)-1H-pyrazol-4-yl)methyl)azetidin-3-yl)-1H-1,2,3-triazole-4-carboxamide], 16 nM. As for `CNCCOc1cccc(C(C)N2CC(NC(=O)c3cn(C4CC4)nn3)C2)c1` (stereo not drawn) [compound 705, 1-cyclopropyl-N-[1-(1-{3-[2-(methylamino)ethoxy]phenyl}ethyl)azetidin-3-yl]-1H-1,2,3-triazole-4-carboxamide], the IC50 came to 2040 nM. In the case of `COCCCOc1ccc(CN2CC(NC(=O)c3cn(C4CC4)nn3)C2)cc1` [compound 818, 1-cyclopropyl-N-(1-{[4-(3-methoxypropoxy)phenyl]methyl}azetidin-3-yl)-1H-1,2,3-triazole-4-carboxamide], the IC50 was determined as 3000 nM. Take `COc1ccc2c(c1Cl)CCC2N1CC(NC(=O)c2cn(C3CC3)nn2)C1` (stereo not drawn) [compound 713, N-[1-(4-chloro-5-methoxy-2,3-dihydro-1H-inden-1-yl)azetidin-3-yl]-1-cyclopropyl-1H-1,2,3-triazole-4-carboxamide]: the IC50 came to 12900 nM. As for `O=C(NC1CN(Cc2cn[nH]c2)C1)c1cn(C2CC2)nn1` [compound 940, N-(1-((1H-pyrazol-4-yl)methyl)azetidin-3-yl)-1-cyclopropyl-1H-1,2,3-triazole-4-carboxamide], the IC50 amounted to 7700 nM. Regarding `NC(=O)c1cccc(CN2CC(NC(=O)c3cn(C4CC4)nn3)C2)c1` [compound 727, N-{1-[(3-carbamoylphenyl)methyl]azetidin-3-yl}-1-cyclopropyl-1H-1,2,3-triazole-4-carboxamide], the IC50 came to 7300 nM. Turning to `CC(c1cc(Cl)ccc1Cl)N1CC(NC(=O)c2cc(C3CC3)ccn2)C1` (stereo not drawn) [compound 962, 4-cyclopropyl-N-(1-(1-(2,5-dichlorophenyl)ethyl)azetidin-3-yl)picolinamide], the half-maximal inhibitory concentration (IC50) came out at 480 nM. Consider `O=C(NC1CN(Cc2cnn(Cc3ccc(Cl)cc3)c2)C1)c1nc(C2CC2)c[nH]1` [compound 927, N-(1-((1-(4-chlorobenzyl)-1H-pyrazol-4-yl)methyl)azetidin-3-yl)-4-cyclopropyl-1H-imidazole-2-carboxamide], for which the half-inhibitory concentration (IC50) is 11 nM. On the same count and under the same terms, the figure for `CC(C)N1CCCC(NC(=O)c2cn(C3CC3)nn2)C1` (stereo not drawn) [compound 808, 1-cyclopropyl-N-[1-(propan-2-yl)piperidin-3-yl]-1H-1,2,3-triazole-4-carboxamide] is 19800 nM. For `CC(c1cccc(Oc2ccccc2)c1)N1CC(NC(=O)c2cn(C3CC3)nn2)C1` (stereo not drawn) [compound 730, 1-cyclopropyl-N-{1-[1-(3-phenoxyphenyl)ethyl]azetidin-3-yl}-1H-1,2,3-triazole-4-carboxamide], the IC50 worked out at 3040 nM. Take `O=C(NC1CN(Cc2cnn(Cc3ccccc3)c2)C1)c1cc(C2CC2)cnn1` [compound 933, N-(1-((1-benzyl-1H-pyrazol-4-yl)methyl)azetidin-3-yl)-5-cyclopropylpyridazine-3-carboxamide]: the IC50 came out at 7.8 nM. `CN1CCCC(NC(=O)c2cc(C3CC3)cnn2)C1` (stereo not drawn) [compound 918, 5-cyclopropyl-N-(1-methylpiperidin-3-yl)pyridazine-3-carboxamide]: the IC50 is more than 50000 nM.

On to `Cn1cc(CN2CC(NC(=O)c3cn(C4CC4)nn3)C2)c(Cl)n1` [compound 811, N-{1-[(3-chloro-1-methyl-1H-pyrazol-4-yl)methyl]azetidin-3-yl}-1-cyclopropyl-1H-1,2,3-triazole-4-carboxamide], for which the IC50 came to 1220 nM. The same measure, in the same setting: in the case of `CC(c1ccc2c(cnn2C)c1)N1CC(NC(=O)c2cn(C3CC3)nn2)C1` (stereo not drawn) [compound 952, 1-cyclopropyl-N-(1-(1-(1-methyl-1H-indazol-5-yl)ethyl)azetidin-3-yl)-1H-1,2,3-triazole-4-carboxamide] it was 1630 nM.

Regarding `COc1cccc2c1C(N1CC(NC(=O)c3cn(C4CC4)nn3)C1)CC2` (stereo not drawn) [compound 762, 1-cyclopropyl-N-[1-(7-methoxy-2,3-dihydro-1H-inden-1-yl)azetidin-3-yl]-1H-1,2,3-triazole-4-carboxamide], the IC50 was found to be 7970 nM. On the same count and under the same terms, in the case of `O=C(NC1CN(Cc2cnn(Cc3ccc(Cl)cc3)c2)C1)c1cc(C2CC2)ccn1` [compound 930, N-(1-((1-(4-chlorobenzyl)-1H-pyrazol-4-yl)methyl)azetidin-3-yl)-4-cyclopropylpicolinamide] it was 3.3 nM. Same read-out and setting: the figure for `O=C(NC1CN(Cc2cnn(Cc3ccccc3)c2)C1)c1ncc(C2CC2)[nH]1` [compound 986, N-(1-((1-benzyl-1H-pyrazol-4-yl)methyl)azetidin-3-yl)-5-cyclopropyl-1H-imidazole-2-carboxamide] is more than 50000 nM. For `O=C(NC1CN(Cc2cnn(Cc3ncco3)c2)C1)c1cn(C2CC2)nn1` [compound 944, 1-cyclopropyl-N-(1-((1-(oxazol-2-ylmethyl)-1H-pyrazol-4-yl)methyl)azetidin-3-yl)-1H-1,2,3-triazole-4-carboxamide], the IC50 was determined as 920 nM.

As for `O=C(NC1CN(Cc2cnn(Cc3ccc(Cl)cc3)c2)C1)c1cc(C2CC2)cnn1` [compound 929, N-(1-((1-(4-chlorobenzyl)-1H-pyrazol-4-yl)methyl)azetidin-3-yl)-5-cyclopropylpyridazine-3-carboxamide], the IC50 is 1.2 nM. On to `CC(C)C(c1ccccc1)N1CC(NC(=O)c2cn(C3CC3)nn2)C1` (stereo not drawn) [compound 787, 1-cyclopropyl-N-[1-(2-methyl-1-phenylpropyl)azetidin-3-yl]-1H-1,2,3-triazole-4-carboxamide], for which the IC50 came out at 1430 nM. Consider `CCC(c1cccc(F)c1)N1CC(NC(=O)c2cn(C3CC3)nn2)C1` (stereo not drawn) [compound 711, 1-cyclopropyl-N-{1-[1-(3-fluorophenyl)propyl]azetidin-3-yl}-1H-1,2,3-triazole-4-carboxamide], for which the IC50 stood at 1010 nM.

On to `COc1ccc(Cl)cc1C(C)N1CC(NC(=O)c2cn(C3CC3)nn2)C1` (stereo not drawn) [compound 860, N-{1-[1-(5-chloro-2-methoxyphenyl)ethyl]azetidin-3-yl}-1-cyclopropyl-1H-1,2,3-triazole-4-carboxamide], for which the IC50 came to 2790 nM. On the same count and under the same terms, in the case of `CC(c1ccc(OCCc2ccccc2)cc1)N1CC(NC(=O)c2cn(C3CC3)nn2)C1` (stereo not drawn) [compound 960, 1-cyclopropyl-N-(1-(1-(4-phenethoxyphenyl)ethyl)azetidin-3-yl)-1H-1,2,3-triazole-4-carboxamide] it was 780 nM; in that of `CC(c1cc(Cl)ccc1OC(F)F)N1CC(NC(=O)c2cn(C3CC3)nn2)C1` (stereo not drawn) [compound 970, N-(1-(1-(5-chloro-2-(difluoromethoxy)phenyl)ethyl)azetidin-3-yl)-1-cyclopropyl-1H-1,2,3-triazole-4-carboxamide], 5100 nM. Same read-out and setting: the figure for `O=C(NC1CN(CC2CC2)C1)c1cn(C2CC2)nn1` [compound 665, 1-cyclopropyl-N-[1-(cyclopropylmethyl)azetidin-3-yl]-1H-1,2,3-triazole-4-carboxamide] is 2000 nM; for `COc1ccc(COc2ccc(C(C)N3CC(NC(=O)c4cn(C5CC5)nn4)C3)cc2)cc1` (stereo not drawn) [compound 957, 1-cyclopropyl-N-(1-(1-(4-((4-methoxybenzyl)oxy)phenyl)ethyl)azetidin-3-yl)-1H-1,2,3-triazole-4-carboxamide] it is 160 nM; for `COc1c(OCCO)cccc1C(C)N1CC(NC(=O)c2cn(C3CC3)nn2)C1` (stereo not drawn) [compound 776, 1-cyclopropyl-N-(1-{1-[3-(2-hydroxyethoxy)-2-methoxyphenyl]ethyl}azetidin-3-yl)-1H-1,2,3-triazole-4-carboxamide] it is 345 nM. As for `CC(c1ccc(-n2ccnc2)cc1)N1CC(NC(=O)c2cn(C3CC3)nn2)C1` (stereo not drawn) [compound 797, 1-cyclopropyl-N-(1-{1-[4-(1H-imidazol-1-yl)phenyl]ethyl}azetidin-3-yl)-1H-1,2,3-triazole-4-carboxamide], the IC50 came out at 1570 nM.
